# Source: PMC9090415, “Discovery of small molecule inhibitors of Plasmodium falciparum apicoplast DNA polymerase” (Journal of Enzyme Inhibition and Medicinal Chemistry, 2022)
# Target: P. falciparum apicoplast DNA polymerase (Pf-apPOL) (Plasmodium falciparum, UniProt Q8ILY1)
# Assay: Fluorescence-based high-throughput DNA polymerase assay (molecular beacon), primary screen and dose-response;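 on % inhibition ApPOL 90': test concentration in µM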;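 on % inhibition apPOL 180': test concentration in µM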
# Format: biochemical
# Conditions: for DNA Pol: 90 min, 10 µM; for IC50: supplemental file 2, sheet IC50 nontoxic compounds, Pf-apPOL
# Method in brief: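 Single-point screening used 10 µM compound with 20 nM polymerase, 20 nM hairpin substrate and 6 µM dNTPs for 90 min at 25 °C. Confirmatory titrations (2.5–80 µM) followed fluorescence at three times, and IC50 was derived from a fit including a cooperativity term n.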
# [1] = DRC-2, 40', concentration 20 (unit not given)
# [2] = DRC-2, 90', concentration 20 (unit not given)
# [3] = DRC-2, 180', concentration 20 (unit not given)
# Sequence of P. falciparum apicoplast DNA polymerase (Pf-apPOL) (Q8ILY1 entry or part of it): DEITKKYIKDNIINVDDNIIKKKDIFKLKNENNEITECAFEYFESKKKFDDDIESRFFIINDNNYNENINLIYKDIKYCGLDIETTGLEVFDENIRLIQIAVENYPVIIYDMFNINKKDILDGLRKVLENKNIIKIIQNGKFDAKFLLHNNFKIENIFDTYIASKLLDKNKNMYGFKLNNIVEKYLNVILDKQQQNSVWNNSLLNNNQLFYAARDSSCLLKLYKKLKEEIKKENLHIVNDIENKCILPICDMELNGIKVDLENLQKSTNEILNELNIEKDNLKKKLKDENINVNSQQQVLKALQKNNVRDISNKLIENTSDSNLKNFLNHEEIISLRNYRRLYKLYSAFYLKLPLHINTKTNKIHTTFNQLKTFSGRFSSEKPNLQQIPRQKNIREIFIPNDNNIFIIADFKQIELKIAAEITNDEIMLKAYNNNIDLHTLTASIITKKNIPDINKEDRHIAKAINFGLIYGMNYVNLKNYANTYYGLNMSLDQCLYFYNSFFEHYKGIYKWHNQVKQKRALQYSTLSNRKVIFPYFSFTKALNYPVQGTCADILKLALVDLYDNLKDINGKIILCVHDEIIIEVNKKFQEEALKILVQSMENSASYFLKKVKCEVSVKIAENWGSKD
smiles,measurement,setting,value
"CCOc1nc2cccc(C(=O)OC(C)OC(=O)OC3CCCCC3)c2n1Cc1ccc(-c2ccccc2-c2nn[nH]n2)cc1 (stereo not drawn) [Molecule 94, CCOc1nc2c(n1Cc1ccc(cc1)c1ccccc1c1n[nH]nn1)c(ccc2)C(=O)OC(OC(=O)OC1CCCCC1)C]",DNA Pol,'DNA Pol' of the 186 hits list (screen value),88
same,% inhibition Apo pol 10',"DRC-1, conc 2.5",6.803%
same,% inhibition Apo pol 10',"DRC-1, conc 5",16.1591%
same,% inhibition Apo pol 10',"DRC-1, conc 10",73.0339%
same,% inhibition Apo pol 10',"DRC-1, conc 20",91.1%
same,% inhibition Apo pol 10',"DRC-1, conc 40",96.7244%
same,% inhibition Apo pol 10',"DRC-1, conc 80",98.4846%
same,% inhibition Apol 90',"DRC-1, 90', conc 2.5",4.826%
same,% inhibition Apol 90',"DRC-1, 90', conc 5",16.7075%
same,% inhibition Apol 90',"DRC-1, 90', conc 10",71.8878%
same,% inhibition Apol 90',"DRC-1, 90', conc 20",89.9299%
same,% inhibition Apol 90',"DRC-1, 90', conc 40",93.9408%
same,% inhibition Apol 90',"DRC-1, 90', conc 80",94.456%
same,% inhibition apPOL 180',"DRC-1, 180', conc 2.5",1.0757%
same,% inhibition apPOL 180',"DRC-1, 180', conc 5",11.5491%
same,% inhibition apPOL 180',"DRC-1, 180', conc 10",64.6519%
same,% inhibition apPOL 180',"DRC-1, 180', conc 20",87.4687%
same,% inhibition apPOL 180',"DRC-1, 180', conc 40",92.7393%
same,% inhibition apPOL 180',"DRC-1, 180', conc 80",93.1007%
same,% inhibition Apo pol 5',"DRC-2, conc 2.5",8%
same,% inhibition Apo pol 5',"DRC-2, conc 5",14%
same,% inhibition Apo pol 5',"DRC-2, conc 10",46%
same,% inhibition Apo pol 5',"DRC-2, conc 20",55%
same,% inhibition Apo pol 5',"DRC-2, conc 40",61%
same,% inhibition Apo pol 5',"DRC-2, conc 80",61%
same,% inhibition Apo pol 5',"DRC-2, concentration 5",14%
same,% inhibition Apo pol 5',"DRC-2, concentration 40",61%
same,% inhibition Apo pol 5',"DRC-2, concentration 80",61%
same,% inhibition Apol 40',"DRC-2, 40', conc 2.5",11%
same,% inhibition Apol 40',"DRC-2, 40', conc 5",19%
same,% inhibition Apol 40',"DRC-2, 40', conc 10",59%
same,% inhibition Apol 40',"DRC-2, 40', conc 20",71%
same,% inhibition Apol 40',"DRC-2, 40', conc 40",74%
same,% inhibition Apol 40',"DRC-2, 40', conc 80",74%
same,% inhibition Apol 40',"DRC-2, 40', concentration 5",19%
same,% inhibition Apol 40',"DRC-2, 40', concentration 10",59%
same,% inhibition Apol 40',"DRC-2, 40', concentration 40",74%
same,% inhibition Apol 40',"DRC-2, 40', concentration 80",74%
same,% inhibition ApPOL 90',"DRC-2, 90', conc 2.5",9%
same,% inhibition ApPOL 90',"DRC-2, 90', conc 5",19%
same,% inhibition ApPOL 90',"DRC-2, 90', conc 10",59%
same,% inhibition ApPOL 90',"DRC-2, 90', conc 20",73%
same,% inhibition ApPOL 90',"DRC-2, 90', conc 40",77%
same,% inhibition ApPOL 90',"DRC-2, 90', conc 80",77%
same,% inhibition ApPOL 90',"DRC-2, 90', concentration 5",19%
same,% inhibition ApPOL 90',"DRC-2, 90', concentration 10",59%
same,% inhibition ApPOL 90',"DRC-2, 90', concentration 40",77%
same,% inhibition ApPOL 90',"DRC-2, 90', concentration 80",77%
same,% inhibition apPOL 180',"DRC-2, 180', conc 2.5",4.45%
same,% inhibition apPOL 180',"DRC-2, 180', conc 5",14%
same,% inhibition apPOL 180',"DRC-2, 180', conc 10",53%
same,% inhibition apPOL 180',"DRC-2, 180', conc 20",69%
same,% inhibition apPOL 180',"DRC-2, 180', conc 40",75%
same,% inhibition apPOL 180',"DRC-2, 180', conc 80",75%
same,% inhibition apPOL 180',"DRC-2, 180', concentration 5",14%
same,% inhibition apPOL 180',"DRC-2, 180', concentration 40",75%
same,% inhibition apPOL 180',"DRC-2, 180', concentration 80",75%
same,DNA Pol,"primary screen value, ""DNA Pol""",88
"OC(C#Cc1ccccc1)c1ccco1 (stereo not drawn) [Molecule 95, OC(c1ccco1)C#Cc1ccccc1]",% inhibition Apo pol 10',"DRC-1, concentration 2.5",31.3113%
same,% inhibition Apo pol 10',"DRC-1, concentration 5",57.2957%
same,% inhibition Apo pol 10',"DRC-1, concentration 10",77.3144%
same,% inhibition Apo pol 10',"DRC-1, concentration 20",80.9257%
same,% inhibition Apo pol 10',"DRC-1, concentration 40",79.5386%
same,% inhibition Apo pol 10',"DRC-1, concentration 80",69.6909%
same,% inhibition Apol 90',"DRC-1, 90', concentration 2.5",17.4442%
same,% inhibition Apol 90',"DRC-1, 90', concentration 5",42.0165%
same,% inhibition Apol 90',"DRC-1, 90', concentration 10",68.6484%
same,% inhibition Apol 90',"DRC-1, 90', concentration 20",80.4558%
same,% inhibition Apol 90',"DRC-1, 90', concentration 40",83.9315%
same,% inhibition Apol 90',"DRC-1, 90', concentration 80",80.7801%
same,% inhibition apPOL 180',"DRC-1, 180', concentration 2.5",5.809%
same,% inhibition apPOL 180',"DRC-1, 180', concentration 5",25.3082%
same,% inhibition apPOL 180',"DRC-1, 180', concentration 10",55.1933%
same,% inhibition apPOL 180',"DRC-1, 180', concentration 20",73.4768%
same,% inhibition apPOL 180',"DRC-1, 180', concentration 40",83.0192%
same,% inhibition apPOL 180',"DRC-1, 180', concentration 80",83.0007%
same,% inhibition Apol 40',"DRC-2, 40', concentration 10 (unit not given)",60%
same,% inhibition Apol 40',[1],62%
same,% inhibition ApPOL 90',"DRC-2, 90', concentration 10 (unit not given)",62%
same,% inhibition ApPOL 90',[2],67%
same,% inhibition ApPOL 90',"DRC-2, 90', concentration 40 (unit not given)",66%
same,% inhibition ApPOL 90',"DRC-2, 90', concentration 80 (unit not given)",60%
same,% inhibition apPOL 180',[3],66%
same,% inhibition apPOL 180',"DRC-2, 180', concentration 80 (unit not given)",67%
same,% inhibition Apo pol 5',"DRC-2, concentration 2.5",14%
same,% inhibition Apo pol 5',"DRC-2, concentration 5",32%
same,% inhibition Apo pol 5',"DRC-2, concentration 10",39%
same,% inhibition Apo pol 5',"DRC-2, concentration 20",34%
same,% inhibition Apo pol 5',"DRC-2, concentration 40",22%
same,% inhibition Apo pol 5',"DRC-2, concentration 80",-5%
same,% inhibition Apol 40',"DRC-2, 40', concentration 2.5",15%
same,% inhibition Apol 40',"DRC-2, 40', concentration 5",44%
same,% inhibition Apol 40',"DRC-2, 40', concentration 10",60%
same,% inhibition Apol 40',"DRC-2, 40', concentration 20",62%
same,% inhibition Apol 40',"DRC-2, 40', concentration 40",59%
same,% inhibition Apol 40',"DRC-2, 40', concentration 80",48%
same,% inhibition ApPOL 90',"DRC-2, 90', concentration 2.5",12%
same,% inhibition ApPOL 90',"DRC-2, 90', concentration 5",41%
same,% inhibition ApPOL 90',"DRC-2, 90', concentration 10",62%
same,% inhibition ApPOL 90',"DRC-2, 90', concentration 20",67%
same,% inhibition ApPOL 90',"DRC-2, 90', concentration 40",66%
same,% inhibition ApPOL 90',"DRC-2, 90', concentration 80",60%
same,% inhibition apPOL 180',"DRC-2, 180', concentration 2.5",4.25%
same,% inhibition apPOL 180',"DRC-2, 180', concentration 5",30%
same,% inhibition apPOL 180',"DRC-2, 180', concentration 10",58%
same,% inhibition apPOL 180',"DRC-2, 180', concentration 20",66%
same,% inhibition apPOL 180',"DRC-2, 180', concentration 40",71%
same,% inhibition apPOL 180',"DRC-2, 180', concentration 80",67%
same,DNA Pol,"primary screen value of the 186 hits, unit not given",70
same,DNA Pol,"primary screen value, head ""DNA Pol"", unit not given",70
Cc1ccc(C(=O)/C=C/C=C/C=C/N(C)C)o1 [Molecule 96],IC50,,4.93 µM
"CCOc1ccc(/C=C2\N=C(c3cc([N+](=O)[O-])cc([N+](=O)[O-])c3)OC2=O)cc1 [Molecule 97, CCOc1ccc(cc1)/C=C/1\N=C(OC1=O)c1cc(cc(c1)N(=O)=O)N(=O)=O]",DNA Pol,"'DNA Pol' of the 186 hits list (primary screen result), unit not given",62
same,% inhibition Apo pol 10',"DRC-1, concentration 2.5",32.0109%
same,% inhibition Apo pol 10',"DRC-1, concentration 5",55.2757%
same,% inhibition Apo pol 10',"DRC-1, concentration 10",83.2599%
same,% inhibition Apo pol 10',"DRC-1, concentration 20",91.8438%
same,% inhibition Apo pol 10',"DRC-1, concentration 40",94.8761%
same,% inhibition Apo pol 10',"DRC-1, concentration 80",92.0577%
same,% inhibition Apol 90',"DRC-1, 90', concentration 2.5",15.0386%
same,% inhibition Apol 90',"DRC-1, 90', concentration 5",31.639%
same,% inhibition Apol 90',"DRC-1, 90', concentration 10",61.0945%
same,% inhibition Apol 90',"DRC-1, 90', concentration 20",80.2984%
same,% inhibition Apol 90',"DRC-1, 90', concentration 40",94.8535%
same,% inhibition Apol 90',"DRC-1, 90', concentration 80",94.5175%
same,% inhibition apPOL 180',"DRC-1, 180', concentration 2.5",6.537%
same,% inhibition apPOL 180',"DRC-1, 180', concentration 5",16.2109%
same,% inhibition apPOL 180',"DRC-1, 180', concentration 10",41.6227%
same,% inhibition apPOL 180',"DRC-1, 180', concentration 20",66.1189%
same,% inhibition apPOL 180',"DRC-1, 180', concentration 40",93.496%
same,% inhibition apPOL 180',"DRC-1, 180', concentration 80",95.7221%
same,% inhibition Apol 40',[1],68%
same,% inhibition Apol 40',"DRC-2, 40', concentration 40 (unit not given)",76%
same,% inhibition Apol 40',"DRC-2, 40', concentration 80 (unit not given)",76%
same,% inhibition ApPOL 90',[2],68%
same,% inhibition apPOL 180',[3],60%
same,% inhibition Apo pol 5',"DRC-2, concentration 2.5",20%
same,% inhibition Apo pol 5',"DRC-2, concentration 5",43%
same,% inhibition Apo pol 5',"DRC-2, concentration 10",52%
same,% inhibition Apo pol 5',"DRC-2, concentration 20",59%
same,% inhibition Apo pol 5',"DRC-2, concentration 40",61%
same,% inhibition Apo pol 5',"DRC-2, concentration 80",60%
same,% inhibition Apo pol 5',"DRC-2, concentration 80 (unit not given)",60%
same,% inhibition Apol 40',"DRC-2, 40', concentration 2.5",14%
same,% inhibition Apol 40',"DRC-2, 40', concentration 5",38%
same,% inhibition Apol 40',"DRC-2, 40', concentration 10",47%
same,% inhibition Apol 40',"DRC-2, 40', concentration 20",68%
same,% inhibition Apol 40',"DRC-2, 40', concentration 40",76%
same,% inhibition Apol 40',"DRC-2, 40', concentration 80",76%
same,% inhibition ApPOL 90',"DRC-2, 90', concentration 2.5",9%
same,% inhibition ApPOL 90',"DRC-2, 90', concentration 5",33%
same,% inhibition ApPOL 90',"DRC-2, 90', concentration 10",42%
same,% inhibition ApPOL 90',"DRC-2, 90', concentration 20",68%
same,% inhibition ApPOL 90',"DRC-2, 90', concentration 40",79%
same,% inhibition ApPOL 90',"DRC-2, 90', concentration 80",80%
same,% inhibition apPOL 180',"DRC-2, 180', concentration 2.5",2.15%
same,% inhibition apPOL 180',"DRC-2, 180', concentration 5",19%
same,% inhibition apPOL 180',"DRC-2, 180', concentration 10",28%
same,% inhibition apPOL 180',"DRC-2, 180', concentration 20",60%
same,% inhibition apPOL 180',"DRC-2, 180', concentration 40",81%
same,% inhibition apPOL 180',"DRC-2, 180', concentration 80",84%
same,DNA Pol,"primary screen value of the library well, unit not given",62
CCOc1ccc(/C=C2\N=C(c3cc([N+](=O)[O-])cc([N+](=O)[O-])c3)OC2=O)cc1 [Molecule 97],IC50,,4.47 µM
